≈ marks a conversion by molar mass, not a printed value.
tested on: Mycobacterium tuberculosis; experiment: Antimycobacterial activity against Mycobacterium tuberculosis H37Rv by MABA method; format: functional

First: COc1ccc(CCN(CCCC(C#N)(c2ccc(OC)c(OC)c2)C(C)C)C2CC2)cc1OC (stereo not drawn)
Second: COc1ccc(CCN(C)CCCC(C#N)(c2ccc(OC)c(OC)c2)C(C)C)cc1OC (stereo not drawn) [VERAPAMIL]
The MIC99 of the first is 4-fold lower: 125 µM (≈ 60.1 µg/mL) for the first, 500 µM (≈ 227 µg/mL) for the second.

Going from `CCN(CCCC(C#N)(c1ccc(OC)c(OC)c1)C(C)C)CCc1ccc(OC)c(OC)c1` (stereo not drawn) to `CCCN(CCCC(C#N)(c1ccc(OC)c(OC)c1)C(C)C)CCc1ccc(OC)c(OC)c1` (stereo not drawn), the MIC99 falls from 1000 µM (≈ 469 µg/mL) to 500 µM (≈ 241 µg/mL) (2-fold).

`COc1ccc(CCN(CCCC(C#N)(c2ccc(OC)c(OC)c2)C(C)C)Cc2ccccc2)cc1OC` (stereo not drawn) and `COc1ccc(CN(C)CCCC(C#N)(c2ccc(OC)c(OC)c2)C(C)C)cc1OC` (stereo not drawn) are the same in MIC99: 1000 µM (≈ 531 µg/mL) for the first, 1000 µM (≈ 441 µg/mL) for the second.

Compared with `COc1ccc(N(C)CCCC(C#N)(c2ccc(OC)c(OC)c2)C(C)C)cc1OC` (stereo not drawn), `COc1ccc(CCNCCCC(C#N)(c2ccc(OC)c(OC)c2)C(C)C)cc1OC` (stereo not drawn) [NORVERAPAMIL] is 2-fold lower in MIC99: 1000 µM (≈ 427 µg/mL) for the first, 500 µM (≈ 220 µg/mL) for the second.

`COc1ccc(C(C#N)(CCCN2CCCCC2)C(C)C)cc1OC` (stereo not drawn) and `COc1ccc(C(C#N)(CCCN2CCOCC2)C(C)C)cc1OC` (stereo not drawn) are the same in MIC99: 1000 µM (≈ 344 µg/mL) for the first, 1000 µM (≈ 346 µg/mL) for the second.

First: COc1ccc(C(C#N)(CCCN2CCC(O)CC2)C(C)C)cc1OC (stereo not drawn)
Second: COc1ccc(C(C#N)(CCCN2CCC(N3CCCCC3)CC2)C(C)C)cc1OC (stereo not drawn)
The MIC99 of the first is 2-fold higher: 1000 µM (≈ 360 µg/mL) for the first, 500 µM (≈ 214 µg/mL) for the second.

`COc1ccc(C(C#N)(CCCN2CCC(O)(c3ccccc3)CC2)C(C)C)cc1OC` (stereo not drawn) and `COc1ccc(C(C#N)(CCCN2CCN(c3ccccc3)CC2)C(C)C)cc1OC` (stereo not drawn) are the same in MIC99: 250 µM (≈ 109 µg/mL) for the first, 250 µM (≈ 105 µg/mL) for the second.

Compared with `COc1ccc(C(C#N)(CCCN2CCN(c3ccccn3)CC2)C(C)C)cc1OC` (stereo not drawn), `COc1ccc(C(C#N)(CCCN2CCN(c3ccccc3F)CC2)C(C)C)cc1OC` (stereo not drawn) is 4-fold lower in MIC99: 250 µM (≈ 106 µg/mL) for the first, 62.5 µM (≈ 27.5 µg/mL) for the second.

`COc1ccc(CCN(C)CCCC(C#N)c2ccc(OC)c(OC)c2)cc1OC` (stereo not drawn) and `COc1ccc(CCN(C)CCCC(C)(C#N)c2ccc(OC)c(OC)c2)cc1OC` (stereo not drawn) are the same in MIC99: 1000 µM (≈ 413 µg/mL) for the first, 1000 µM (≈ 427 µg/mL) for the second.

First: CCC(C#N)(CCCN(C)CCc1ccc(OC)c(OC)c1)c1ccc(OC)c(OC)c1 (stereo not drawn)
Second: CCCC(C#N)(CCCN(C)CCc1ccc(OC)c(OC)c1)c1ccc(OC)c(OC)c1 (stereo not drawn)
The MIC99 of the first is 2-fold higher: 1000 µM (≈ 441 µg/mL) for the first, 500 µM (≈ 227 µg/mL) for the second.

First: COc1ccc(CCN(C)CCCC(C#N)(c2ccc(OC)c(OC)c2)C2CCCC2)cc1OC (stereo not drawn)
Second: COc1ccc(CCN(C)CCCC(C#N)(c2ccc(OC)c(OC)c2)C2CCCCC2)cc1OC (stereo not drawn)
The MIC99 of the first is 2-fold higher: 125 µM (≈ 60.1 µg/mL) for the first, 62.5 µM (≈ 30.9 µg/mL) for the second.

Molecule `CO[C@H]1/C=C/O[C@@]2(C)Oc3c(C)c(O)c4c(O)c(c(/C=N/N5CCN(C)CC5)c(O)c4c3C2=O)NC(=O)/C(C)=C\C=C\[C@H](C)[C@H](O)[C@@H](C)[C@@H](O)[C@@H](C)[C@H](OC(C)=O)[C@@H]1C` [RIFAMPIN] has an MIC99 of 0.0083 µM (≈ 0.00683 µg/mL).

Reference: ChEMBL document CHEMBL3352715, “Synthesis of new verapamil analogues and their evaluation in combination with rifampicin against Mycobacterium tuberculosis and molecular docking studies in the binding site of efflux protein Rv1258c” (2014)
